Measurements reported in patent US8431530B2, “Compositions and methods for treating aids or cancer by inhibiting the secretion of microparticles” (priority 2009, dated 2013).

Tests used:
R7; Magi/CXCR4 cells = assay: Magi assay of viral infectivity, supernatants of Jurkat cells; assay type: cell-based, HIV; settings: for blue staining (productively infected) Magi/CXCR4 cells: 48 hour conditioned supernatant of Jurkat cells transfected with R7 and peptide, X-Gal
Procedure: Magi/CXCR4 cells were exposed to 48 hour conditioned supernatants from Jurkat cells, HEK293 cells, THP-1 monocytes, or U937 monocytes transfected with either R7 viral DNA/SMRwt peptide or R7 viral DNA/SMRmt peptide. These cells were then fixed and stained with X-Gal. […] Cells productively infected with R7 are easily visualized under light microscopy by their blue nuclear staining. Magnification ×20. […] This is indicative of virus in the conditioned supernatant from the R7/negative control peptide treated cells and no virus in conditioned supernatant from the R7/antagonist treated cells.
These Magi cultures were quantitated for blue staining cells. The data was plotted as a function of time post-transfection. […] This is possibly due to antagonism of trafficking of viral component(s) to the cytoplasmic membrane. Ultimately this would shutdown the HIV infection and block progression to AIDS.

pNL4-3 in 293 cells = assay: p24 assay of virion production after pNL4-3 co-transfection; assay type: cell-based, HIV; settings: for p24: co-transfected with pNL4-3; for Effect (a/b): p24 of sample / p24 of pNL4-3 + sM1
Procedure: pNL4-3 is a clone containing the viral genome. Transfection into cells allows expression of the viral genome and ultimately virion formation and release. The amount of virion production in the extracellular supernatant is measured through p24 protein (viral protein). Samples were collected at 48 hours and 96 hours post-infection.
At 48 hr postinfection two plates in each group were removed and analyzed by: • a. p24 assay • b. Nef assay • c. Infectivity assay • At 96 hr postinfection the other two plates in each group were removed and analyzed by: • a. p24 assay • b. Nef assay • c. Infectivity assay

R7 in U937 monocytes = assay: p24 ELISA of supernatant after R7 co-transfection; assay type: cell-based, HIV; settings: up to 36 days
Procedure: Jurkat cells, HEK293 cells, THP-1 monocytes and U937 monocytes were co-transfected with either R7 […] Nef SMR wt (antagonist) or with R7+Nef SMR mt (nonfunctional antagonist) by Chariot™ Kit. The transfection efficiency was 30-40%.
R7 is a clone containing the viral genome. Transfection into cells allows expression of the viral genome and ultimately virion formation and release. The amount of virion production in the extracellular supernatant is measured through p24 protein (viral protein).
At 2 hours, 3 days, 6 days, 9 days, 13 days, 15 days, 17 days, 20 days, 23 days, 27 days and 36 days post-transfection, 0.5 ml supernatant were collected from each plate, mixed with 0.5 ml fresh media and analyzed by p24 ELISA assay. 1.5 ml of supernatant were collected from each plate and spun in a TLA100 rotor at 400,000×g for 1 hour to create the pellets. The pellets were used for Western blot analysis with p24 mAb and Nef mAb.

R7 in Jurkat cells = assay: Electron microscopy of viral particle distribution; assay type: cell-based, HIV; settings: R7 co-transfection, day 6 versus day 14
Excerpt: FIG. 4A is a composite of diagrams showing ELISA analysis of p24 concentration in Jurkat cells (panel A), HEK293 cells (panel B), THP-1 Monocytes (panel C) and U937 monocytes (panel D). FIG. 4B is a composite of confocal microscope pictures showing blocking of p24 release in Jurkat cells by SMRwt peptide (panel A) but not by SMRrmt peptide (panel B). FIG. 4C is a composite of confocal and electron microscope pictures showing viral particle distribution in Jurkat cells at day 6 post-transfection with R7 and SMRwt peptide (panel A-1) or with R7 and SMRmt peptide (panel B-1). FIG. 4D is a composite of confocal and electron microscope pictures showing viral particle distribution in Jurkat cells at day 14 post-transfection with R7 and SMRwt peptide (panel A-2) or with R7 and SMRmt peptide (panel B-2), FIG. 4E is a composite of confocal and electron microscope pictures showing viral particle distribution in subcellular structures in Jurkat cells at day 6 post-transfection with R7 and SMRwt peptide (panel A-1) or with R7 and SMRmt peptide (panel B-1) in Jurkat cells and at day 14 post-transfection with R7 and SMRwt peptide (panel A-2) or with R7 and SMRmt peptide (panel B-2) in Jurkat cells.
FIGS. 4C-4E are electron microscopic pictures showing Jurkat cells transfected with R7/SMRwt or […] at day 6 (FIG. 4C) and day 14 (FIG. 4D) post transfection. […]

Jurkat cells = assay: Cellular toxicity assay, fluorescein diacetate and propidium iodide; assay type: cell-based; settings: peptide alone by Chariot, 48 hours
Excerpt: FIG. 12 is a composite of pictures showing the result of cellular toxicity assay for cells transfected with SMRwt or SMRmt peptide. Panels A-1 and B-1: Propidium iodide staining of cells transfected with SMRwt and SMRmt peptide, respectively. Panels A-2 and B-2: Fluorescein diacetate staining of cells transfected with SMRwt and SMRmt peptide, respectively. Panels A-3 and B-3: Phase microscope image of cells transfected with SMRwt and SMRmt peptide, respectively.
SMRwt or SMRmut (negative control) peptide alone were transfected into Jurkat cells using Chariot. The transfected cells were allowed to grow for 48 hours. The cells were assayed by Fluorescein diacetate (FD; taken up by live cells and converted to FITC making cells fluoresce green) and propidium iodide (PI; diffuse across porous membranes of dying cells fluoresing red inside those cells) for cytotoxicity.

Substance	blue staining (productively infected) Magi/CXCR4 cells (R7; Magi/CXCR4 cells)	p24 (pNL4-3 in 293 cells; 293, 48 hr)	Effect (a/b) (pNL4-3 in 293 cells; 293, 48 hr)	p24 (pNL4-3 in 293 cells; 293, 96 hr)	Effect (a/b) (pNL4-3 in 293 cells; 293, 96 hr)	numbers of infected Magi cells as a function of time post-transfection (R7; Magi/CXCR4 cells; supernatant from transfected Jurkat cells)	p24 in supernatant (R7 in U937 monocytes)	release of virus as measured by EM (R7 in Jurkat cells)	dying cells (propidium iodide) (Jurkat cells)	cytotoxicity (in words) (Jurkat cells; FD/PI)
H2N-AGFPVAAAGFPVDYKDDDDK-OH (H-AGFPVAAAGFPVDYKDDDDK-OH) [SMRmt]	many blue staining cells	30 pg/mL	0.67	1125 pg/mL	1.17					
H-VGFPVAAVGFPVDYKDDDDK-OH [SMRwt]	drastically reduced numbers of blue staining cells	90 pg/mL	2	345 pg/mL	0.359	significantly reduced	little p24	delays release of virus from infected cells	< 2%	very little or no cytotoxicity
